In patent US7769423B2 (Duke University, priority 2002, dated 2010):

Tests used:
fibrosarcoma (FSA-1) = assay: Antitumor effect: time for tumors to reach five times the volume on the day of treatment; type: in vivo, rat
Method: Tumor model. […] The fibrosarcoma was transplanted subcutaneously in the flanks of 8-week-old female Fischer 344 rats (Charles River Laboratories, Wilmington, Mass., U.S.A.) under anesthesia using intraperitoneal ketamine (9 mg/kg body weight) and xylazine (10 mg/kg body weight). Tumors were allowed to grow for approximately 2 weeks to a diameter of 10-12 mm before treatment.
Each group of rats (except the control group) received an equivalent dose of 5 mg doxorubicin/kg body weight by intravenous injection and/or 1 hour of hyperthermia. Local hyperthermia was delivered by means of an 18-gauge catheter that was placed through the center of the tumor and through which heated water (˜50° C., 1.8 mL/s) was passed.
The remaining 6-7 rats in each treatment group were included in the survival analysis. […] Final images were taken after tumors cooled to room temperature. […] After therapy, the rats were monitored as they recovered from anesthesia. Tumor volumes were measured three times per week for 60 days or until the tumor volume reached five times the volume on the day of treatment. At these endpoints, the rats were killed by carbon dioxide asphyxiation. […] The five-times-the-initial-volume cutpoint was chosen based on guidelines from the institutional animal care and use committee. No rats were killed before the specified endpoints were reached.
Descriptive summary statistics are expressed as mean values with 95% confidence intervals, except for the time-to-five-times-tumor-volume data, which are expressed as median values with 95% confidence intervals. To avoid assuming a normal distribution, nonparametric or semi-parametric statistical methods were used. Group comparisons were conducted with the Kruskal-Wallis test for more than two groups and the Wilcoxon test for between-group differences. For the antitumor efficacy data, the primary endpoint (time to reach five times the original tumor volume) was analyzed by the Kaplan-Meier product-limit method, using the Wilcoxon rank test for between-group differences. […]

[1] = In vitro MRI T1 relaxivity measurements as a function of temperature and concentration; type: physicochemical; details: linear regression, in vitro samples, 2-T magnet
Method: Three control stock solutions of manganese sulfate (MnSO4.H2O), free DOX and MnSO4.H2O in a molar ratio of 0.902:1 (DOX:Mn), and MnSO4.H2O with thermally sensitive liposomes that were formed without the presence of MnSO4.H2O. These solutions, along with liposome solutions, were then diluted to concentrations from 0.25-8 mM. The solutions were placed in […] NMR tubes cut to a three-inch length.
All MRI experiments were performed at the Center for In vivo Microscopy at Duke University in a 2-T 30-cm bore diameter magnet (Signa, G.E. Medical Systems, Milwaukee, Wis.). […] Each experiment had six to eight sample tubes, which were contained within an exposed sample holder, and placed inside a 3.81 cm birdcage coil providing RF excitation. […]
Images that were obtained were analyzed by selecting a region of interest and measuring average intensity for each sample dilution. […]
To quantify the concentration of drug in vivo using MRI, in vitro experiments were performed to determine the concentration- and temperature-dependence of T1 shortening. These experiments measured signal intensity resulting from proton spin realignment to the bulk magnetic field after excitation from repetitive radio frequency pulses. […] MnSO4 liposome-DOX formulation measured over a range of drug concentrations (T=29.9° C.). […]

[2] = at physiological temperatures; Unger 1993; cited from earlier work
[3] = tested on: fibrosarcomas implanted in the flank of Fisher 344 rats; assay: In vivo MRI signal enhancement and signal intensity ratio (SIR) in rats bearing flank fibrosarcomas, catheter hyperthermia
Method: Fibrosarcocomas were transplanted in the flank of fisher 344 rats and allowed to grow to 17-19 mm in diameter. Rats were anesthetized with pentobarbital (source/amount) and a 16 gauge catheter was placed through the center of the tumor. Heated water (56° C., 1.8 ml/s) was passed through the catheter to provided hyperthermia. During MRI scans, the heating water was doped with 0.25 M MnSO4 to prevent flow image artifacts. Gradient recalled echo was used with a Tr of 23 ms, Te of 1.4 ms, and flip angles of 5, 15, 30, 40, 50, 60 degrees for the initial T1 weighted image. Subsequent drug uptake scans were performed at a flip angle of 33°. 3D volume images, 12 slices 1 mm thick, were taken with a field of view of 6 cm with a pixel size of 234×234 μm. Four and signal image averaging was used for liposome and Gd-DTPA experiments yielding scan times of 1 min, 45 sec and 30 sec respectively.
1NEX image averaging was used for the first twenty minutes of liposome or Gd uptake. Subsequent images were taken at 4NEX for the remainder of the experiment (90-120 minutes).
The liposome formulations were studied in fibrosarcomas implanted in the flank of Fisher 344 rats. The center of the tumor was heated using a catheter through which hot was water circulated. […] Liposomes were then administered intravenously, followed by MR imaging.
In vivo drug relative concentrations were performed by signal intensity image analysis over regions of interest (ROI) within heated tumors. The white boxes present in FIGS. 2A, 2B and 2C indicate these ROIs. […] Muscle in the non-tumor bearing leg of the animal was used as a non-heated, normal tissue control.

[4] = cited from earlier work

Q: With `COc1cccc2c1C(=O)c1c(O)c3c(c(O)c1C2=O)C[C@@](O)(C(=O)CO)C[C@@H]3O[C@H]1C[C@H](N)[C@H](O)[C@H](C)O1` [free doxorubicin, doxorubicin] as the compound, how does the “tumor growth time / growth delay” value (fibrosarcoma (FSA-1); alone, without hyperthermia) read?
A: statistically significantly longer tumor growth times than the saline control

Q: And the “complete tumor regression upon censoring at 60 days” value (fibrosarcoma (FSA-1); during / plus hyperthermia)?
A: one of the six rats

Q: What about the “tumor growth time / growth delay” value (fibrosarcoma (FSA-1); with hyperthermia) of the same compound?
A: statistically significantly longer tumor growth times than the saline control

Q: For `O=S(=O)([O-])[O-].[Mn+2]` [MnSO4, manganese sulfate], which “intercept of relaxivity as a function of temperature (intercept±S.E.)” value [1] is on record?
A: 7.28 ± 0.12 mM/s

Q: And the “slope of relaxivity as a function of temperature (slope±S.E.)” value [1]?
A: −0.082±0.003 (mM·sec·° C.)^−1

Q: For `O=C([O-])CN(CCN(CC(=O)[O-])CC(=O)[O-])CCN(CC(=O)[O-])CC(=O)[O-].[Gd+3]` [Gd-DTPA], which relaxivity [2] is on record?
A: approximately 44.5 (mM·sec·° C.)^−1

Q: And the “time to reach SIR plateau in tumor-enhancing region” value ([3]; enhanced tumor region)?
A: ≤ 10 min

Q: What about the “femoral vessel SIR value reached” value ([3]; femoral vein, normalized to non-heated muscle) of the same compound?
A: 2.0

Q: What about the “time at which femoral vessel SIR value was reached” value ([3]; femoral vein, post injection) of the same compound?
A: 10 min

Q: And the “MR signal enhancement pattern” value ([3]; without hyperthermia (HT))?
A: Enhancement occurs in all tissues with a high degree of non-uniformity in the tumor

Q: And the “fraction excreted in urine” value ([4]; in about 6 hours)?
A: 83%±14%

Q: What about the mean elimination half-life ([4]; in vivo) of the same compound?
A: about 0.2±0.13 hours
